For the test, the target named is T1, Kv1.5 (Homo sapiens, UniProt P22460).
T1 construct: expressed in transfected cells; host or cells: HEK or LTK- cells
Briefly: Kv1.5 Patch Clamp EP (whole cell patch clamp; single point at 1 μM and IC50). The test is classed as cell-based. The conditions noted are these: single point at 1.0 μM, Kv1.5 stably over expressed in HEK or LTK- cells. As to the method:
The external solution is standard Tyrodes solution. […] Inhibition was measured at the end of the 1 second pulses and expressed relative to controls. Initial Kv1.5 inhibition is estimated by single point determinations done at 1 μM.
For orientation: Patch clamp records ionic current or voltage across a cell membrane.

Structures are written as SMILES.

T1 sequence (P22460 whole entry): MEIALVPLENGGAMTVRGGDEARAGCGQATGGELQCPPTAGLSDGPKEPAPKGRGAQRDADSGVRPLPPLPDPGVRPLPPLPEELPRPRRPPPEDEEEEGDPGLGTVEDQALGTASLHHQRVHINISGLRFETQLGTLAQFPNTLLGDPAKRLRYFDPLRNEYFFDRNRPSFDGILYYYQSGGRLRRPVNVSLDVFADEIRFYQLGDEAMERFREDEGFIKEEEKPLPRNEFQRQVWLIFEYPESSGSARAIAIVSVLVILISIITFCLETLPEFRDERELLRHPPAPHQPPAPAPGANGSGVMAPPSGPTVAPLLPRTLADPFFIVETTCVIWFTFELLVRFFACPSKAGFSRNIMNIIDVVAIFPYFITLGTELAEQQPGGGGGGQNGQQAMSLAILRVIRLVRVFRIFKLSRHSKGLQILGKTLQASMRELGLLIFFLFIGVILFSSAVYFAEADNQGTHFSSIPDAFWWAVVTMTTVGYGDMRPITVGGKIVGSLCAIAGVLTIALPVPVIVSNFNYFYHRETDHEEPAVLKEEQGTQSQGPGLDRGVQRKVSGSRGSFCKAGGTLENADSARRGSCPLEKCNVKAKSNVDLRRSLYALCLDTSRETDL

Broadly, the inhibition is the share of the control response that was lost under treatment. In turn, `COc1ccc(CCN2C(=O)C3(CCN(C(=O)OC(C)(C)C)CC3)N(C)C2Cc2ccc(C(C)(C)C)cc2)cc1` (stereo not drawn) [Compound 97, tert-butyl 2-(4-tert-butylbenzyl)-3-[2-(4-methoxyphenyl)ethyl]-1-methyl-4-oxo-1,3,8-triazaspiro[4.5]decane-8-carboxylate] had an inhibition at 1 µM of 16%. Next, `COc1ccc(CCN2C(=O)C3(CCN(C(=O)[C@H]4CCCN4)CC3)N(C)C2c2ccc(C3CC3)cc2)cc1` (stereo partly drawn) [Compound 90, 2-(4-cyclopropylphenyl)-3-[2-(4-methoxyphenyl)ethyl]-1-methyl-8-D-prolyl-1,3,8-triazaspiro[4.5]decan-4-one]: 8%; `COc1ccc(CCN2C(=O)C3(CCNCC3)N(C)C2c2ccc(OC(F)F)cc2)cc1` (stereo not drawn) [Compound 3, 2-(4-Difluoromethoxyphenyl)-3-[2-(4-methoxyphenyl)ethyl]-1-methyl-1,3,8-triaza-spiro[4.5]decan-4-one]: 6%. On to `COc1ccc(CCN2C(=O)C3(CCN(C(=O)OC(C)(C)C)CC3)NC2c2ccc(C(C)(C)C)cc2)cc1` (stereo not drawn) [Compound 60, 2-(4-tert-Butylphenyl)-3-[2-(4-methoxyphenyl)ethyl]-4-oxo-1,3,8-triaza-spiro[4.5]decane-8-carboxylic acid tert-butyl ester], for which the inhibition at 1 µM stood at 32%. For `COc1ccc(CCN2C(=O)C3(CCN(C(N)=O)CC3)N(C)C2c2ccc(OC)cc2)cc1` (stereo not drawn) [Compound 72, 2-(4-methoxyphenyl)-3-[2-(4-methoxyphenyl)ethyl]-1-methyl-4-oxo-1,3,8-triazaspiro[4.5]decane-8-carboxamide] the value was 16%; for `COc1ccc(CCN2C(=O)C3(CCN(C(=O)C(C)(C)N)CC3)N(C)C2c2ccc(C3CC3)cc2)cc1` (stereo not drawn) [Compound 59, 8-(2-Amino-2-methylpropionyl)-2-(4-cyclopropylphenyl)-3-[2-(4-methoxyphenyl)ethyl]-1-methyl-1,3,8-triaza-spiro[4.5]decan-4-one], 11%. Next, `COc1ccc(CCN2C(=O)C3(CCN(C(=O)OC(C)(C)C)CC3)NC2c2ccc(C3CC3)cc2)cc1` (stereo not drawn) [Compound 64, 2-(4-cyclopropylphenyl)-3-[2-(4-methoxyphenyl)ethyl]-4-oxo-1,3,8-triaza-spiro[4.5]decane-8-carboxylic acid tert-butyl ester]: 36%; `COc1ccc(CCN2C(=O)C3(CCN(C(=O)C4CC4)CC3)NC2c2ccc(C(C)(C)C)cc2)cc1` (stereo not drawn) [Compound 88, 2-(4-tert-butylphenyl)-8-(cyclopropylcarbonyl)-3-[2-(4-methoxyphenyl)ethyl]-1,3,8-triazaspiro[4.5]decan-4-one]: 13%; `COc1ccc(CCN2C(=O)C3(CCN(C(=N)N)CC3)N(C)C2c2ccc(C3CC3)cc2)cc1` (stereo not drawn) [Compound 84, 2-(4-cyclopropylphenyl)-3-[2-(4-methoxyphenyl)ethyl]-1-methyl-4-oxo-1,3,8-triazaspiro[4.5]decane-8-carboximidamide]: 7%.

As to `COc1ccc(CCN2C(=O)C3(CCN(C(=O)N(C)C)CC3)N(C)C2c2ccc(C3CC3)cc2)cc1` (stereo not drawn) [Compound 18, 2-(4-Cyclopropylphenyl)-3-[2-(4-methoxyphenyl)ethyl]-1-methyl-4-oxo-1,3,8-triaza-spiro[4.5]decane-8-carboxylic acid dimethylamide], at 1 µM the inhibition was 10%.

Regarding `COc1ccc(CCN2C(=O)C3(CCNCC3)N(C)C2Cc2ccc(C(C)(C)C)cc2)cc1` (stereo not drawn) [Compound 69, 2-(4-tert-butylbenzyl)-3-[2-(4-methoxyphenyl)ethyl]-1-methyl-1,3,8-triazaspiro[4.5]decan-4-one], the inhibition at 1 µM amounted to 5%.

`CCS(=O)(=O)N1CCC2(CC1)NC(c1ccc(C(C)(C)C)cc1)N(CCc1ccc(OC)cc1)C2=O` (stereo not drawn) [Compound 94, 2-(4-tert-butylphenyl)-8-(ethylsulfonyl)-3-[2-(4-methoxyphenyl)ethyl]-1,3,8-triazaspiro[4.5]decan-4-one] came in with an inhibition at 1 µM of 12%.
